Calls of active or inactive are those of the source. The rule behind the calls is not given here.

Sequence of Melanocyte-stimulating hormone receptor (Q01727 whole entry): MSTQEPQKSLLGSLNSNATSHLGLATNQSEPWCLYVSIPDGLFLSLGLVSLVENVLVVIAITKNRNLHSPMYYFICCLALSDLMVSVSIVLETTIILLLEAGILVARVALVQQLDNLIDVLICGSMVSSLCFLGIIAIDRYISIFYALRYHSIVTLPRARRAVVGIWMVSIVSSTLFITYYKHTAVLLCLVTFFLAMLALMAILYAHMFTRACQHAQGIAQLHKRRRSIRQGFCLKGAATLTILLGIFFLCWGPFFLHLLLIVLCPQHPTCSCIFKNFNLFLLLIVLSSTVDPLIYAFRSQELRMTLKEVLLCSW
Sequence of Melanocortin receptor 4 (P56450 whole entry): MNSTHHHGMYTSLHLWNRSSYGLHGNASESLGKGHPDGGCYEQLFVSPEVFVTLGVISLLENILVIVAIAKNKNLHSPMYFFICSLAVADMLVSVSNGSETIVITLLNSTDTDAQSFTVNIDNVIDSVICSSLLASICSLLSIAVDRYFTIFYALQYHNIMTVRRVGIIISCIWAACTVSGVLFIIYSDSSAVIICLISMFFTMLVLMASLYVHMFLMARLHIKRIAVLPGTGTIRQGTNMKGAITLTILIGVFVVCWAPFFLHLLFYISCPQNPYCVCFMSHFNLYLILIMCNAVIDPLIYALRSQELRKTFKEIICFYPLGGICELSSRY
Sequence of Melanocortin receptor 5 (P41149 whole entry): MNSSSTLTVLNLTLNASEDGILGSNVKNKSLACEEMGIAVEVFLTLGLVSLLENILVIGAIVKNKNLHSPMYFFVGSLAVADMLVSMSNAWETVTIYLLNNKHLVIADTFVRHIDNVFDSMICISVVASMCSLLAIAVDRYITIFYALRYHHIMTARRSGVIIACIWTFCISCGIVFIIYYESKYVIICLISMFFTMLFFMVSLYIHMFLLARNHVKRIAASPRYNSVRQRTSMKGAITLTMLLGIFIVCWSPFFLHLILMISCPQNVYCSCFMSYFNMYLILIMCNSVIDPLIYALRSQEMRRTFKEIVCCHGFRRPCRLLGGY

For the first test, the species on record is Mus musculus. Nature of the test: Selectivity index, ratio of EC50 for mouse MCR5R to EC50 for mouse MC1R.
For `N=C(N)NCCCC(NC(=O)[C@@H](Cc1ccccc1)NC(=O)[C@H](Cc1cnc[nH]1)NC(=O)/C=C/c1ccccc1)C(N)=O` (single isomer, unassigned), the Selectivity Index is 25.

The target of the next test is Melanocortin receptor 3 (Mus musculus) (UniProt P33033). Nature of the test: Agonistic activity against mouse MC3R at […]. The class given is functional.
Sequence of Melanocortin receptor 3 (Mus musculus) (P33033 whole entry): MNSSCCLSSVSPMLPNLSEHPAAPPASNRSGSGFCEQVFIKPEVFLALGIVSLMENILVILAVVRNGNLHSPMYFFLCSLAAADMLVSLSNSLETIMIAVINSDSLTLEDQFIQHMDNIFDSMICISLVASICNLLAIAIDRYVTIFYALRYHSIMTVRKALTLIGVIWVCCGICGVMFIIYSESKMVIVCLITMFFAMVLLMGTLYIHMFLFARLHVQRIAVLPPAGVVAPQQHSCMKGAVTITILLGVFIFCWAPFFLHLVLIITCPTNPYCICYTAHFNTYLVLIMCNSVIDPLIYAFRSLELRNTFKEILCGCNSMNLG
`N=C(N)NCCCC(NC(=O)[C@@H](Cc1ccccc1)NC(=O)[C@H](Cc1cnc[nH]1)NC(=O)CCC(=O)c1ccccc1)C(N)=O` (single isomer, unassigned): the result was inactive.
Still for that read-out and setting: under `N#C/C(=C\c1ccc(O)cc1)C(=O)N[C@@H](Cc1cnc[nH]1)C(=O)N[C@H](Cc1ccccc1)C(=O)NC(CCCNC(=N)N)C(N)=O` (single isomer, unassigned) stands “inactive”.
Still for that read-out and setting: the result for `N=C(N)NCCCC(NC(=O)[C@@H](Cc1ccccc1)NC(=O)[C@H](Cc1cnc[nH]1)NC(=O)CCc1cccc2c1OCO2)C(N)=O` (single isomer, unassigned) reads “inactive”; that for `N=C(N)NCCCC(NC(=O)[C@@H](Cc1ccccc1)NC(=O)[C@H](Cc1cnc[nH]1)NC(=O)CCc1c[nH]cn1)C(N)=O` (single isomer, unassigned), “inactive”.
Consider `COc1ccccc1/C=C/C(=O)N[C@@H](Cc1cnc[nH]1)C(=O)N[C@H](Cc1ccccc1)C(=O)NC(CCCNC(=N)N)C(N)=O` (single isomer, unassigned), for which the outcome was inactive.
Still for that read-out and setting: under `COc1ccc(/C=C/C(=O)N[C@@H](Cc2cnc[nH]2)C(=O)N[C@H](Cc2ccccc2)C(=O)NC(CCCNC(=N)N)C(N)=O)cc1` (single isomer, unassigned) stands “inactive”.
On the same count and under the same terms, under `N=C(N)NCCCC(NC(=O)[C@@H](Cc1ccccc1)NC(=O)[C@H](Cc1cnc[nH]1)NC(=O)CCC(=O)c1ccc(F)cc1)C(N)=O` (single isomer, unassigned) stands “inactive”; under `N=C(N)NCCCC(NC(=O)[C@@H](Cc1ccccc1)NC(=O)[C@H](Cc1cnc[nH]1)NC(=O)/C=C/c1ccc([N+](=O)[O-])cc1)C(N)=O` (single isomer, unassigned), “inactive”; under `N=C(N)NCCCC(NC(=O)[C@@H](Cc1ccccc1)NC(=O)[C@H](Cc1cnc[nH]1)NC(=O)c1ccc2c(c1)OCO2)C(N)=O` (single isomer, unassigned), “inactive”.
As for `N=C(N)NCCCC(NC(=O)[C@@H](Cc1ccccc1)NC(=O)[C@H](Cc1cnc[nH]1)NC(=O)/C=C/c1cccc(O)c1)C(N)=O` (single isomer, unassigned), the result was inactive.
On the same count and under the same terms, under `N=C(N)NCCCC(NC(=O)[C@@H](Cc1ccccc1)NC(=O)[C@H](Cc1cnc[nH]1)NC(=O)/C=C/c1ccccc1)C(N)=O` (single isomer, unassigned) stands “inactive”.
Still for that read-out and setting: the result for `N=C(N)NCCCC(NC(=O)[C@@H](Cc1ccccc1)NC(=O)[C@H](Cc1cnc[nH]1)NC(=O)c1ccc2cc(O)ccc2c1)C(N)=O` (single isomer, unassigned) reads “inactive”.
For `COc1ccc(/C=C\C(=O)N[C@@H](Cc2cnc[nH]2)C(=O)N[C@H](Cc2ccccc2)C(=O)N[C@H](CCCNC(=N)N)C(N)=O)cc1`, the result was inactive.
Still for that read-out and setting: under `N=C(N)NCCC[C@@H](NC(=O)[C@@H](Cc1ccccc1)NC(=O)[C@H](Cc1cnc[nH]1)NC(=O)/C=C/c1ccc(F)cc1F)C(N)=O` stands “inactive”.
Still for that read-out and setting: under `N=C(N)NCCC[C@@H](NC(=O)[C@@H](Cc1ccccc1)NC(=O)[C@H](Cc1cnc[nH]1)NC(=O)/C=C/c1ccc2c(c1)OCO2)C(N)=O` stands “inactive”; under `N=C(N)NCCCC(NC(=O)[C@@H](Cc1ccccc1)NC(=O)[C@H](Cc1cnc[nH]1)NC(=O)/C(F)=C/c1ccccc1)C(N)=O` (single isomer, unassigned), “inactive”.
The same measure, in the same setting: the result for `N=C(N)NCCCC(NC(=O)[C@@H](Cc1ccccc1)NC(=O)[C@H](Cc1cnc[nH]1)NC(=O)CCc1cccnc1)C(N)=O` (single isomer, unassigned) reads “inactive”.
As for `N=C(N)NCCCC(NC(=O)[C@@H](Cc1ccccc1)NC(=O)[C@H](Cc1cnc[nH]1)NC(=O)CCc1ccc(O)cc1)C(N)=O` (single isomer, unassigned), the outcome was inactive.
As to `N=C(N)NCCCC(NC(=O)[C@@H](Cc1ccccc1)NC(=O)[C@H](Cc1cnc[nH]1)NC(=O)CCc1cccc(O)c1)C(N)=O` (single isomer, unassigned), the result was inactive.
Consider `CC(=O)N/C(=C\c1ccccc1)C(=O)N[C@@H](Cc1cnc[nH]1)C(=O)N[C@H](Cc1ccccc1)C(=O)NC(CCCNC(=N)N)C(N)=O` (single isomer, unassigned), for which the result was inactive.

Another test concerns the target Melanocortin receptor 5 (Mus musculus, UniProt P41149). Kind of test: Agonistic activity against mouse MC5R. The class given is functional.
For the compound `N=C(N)NCCCC(NC(=O)[C@@H](Cc1ccccc1)NC(=O)[C@H](Cc1cnc[nH]1)NC(=O)CCc1cccc2c1OCO2)C(N)=O` (single isomer, unassigned), the response was half-maximal at 23 µM (EC50).

Another test concerns the target Melanocortin receptor 4 (Mus musculus, UniProt P56450). Nature of the test: Agonistic activity against mouse MC4R. In kind it is functional.
Turning to `N=C(N)NCCCC(NC(=O)[C@@H](Cc1ccccc1)NC(=O)[C@H](Cc1cnc[nH]1)NC(=O)CCc1cccc2c1OCO2)C(N)=O` (single isomer, unassigned), the EC50 (usually the concentration needed to bring the measured effect to its halfway point) was 25.5 µM.

The species named for a further test is Mus musculus. Nature of the test: Selectivity index, ratio of EC50 for mouse MCR4R to EC50 for mouse MC1R.
On to `N=C(N)NCCCC(NC(=O)[C@@H](Cc1ccccc1)NC(=O)[C@H](Cc1cnc[nH]1)NC(=O)/C=C/c1ccccc1)C(N)=O` (single isomer, unassigned), for which the Selectivity Index is 44.

The target in a further test is Melanocortin receptor 5 (Mus musculus) (UniProt P41149). Nature of the test: Agonistic activity against mouse MC5R at […]. In kind it is functional.
Sequence of Melanocortin receptor 5 (Mus musculus) (P41149 whole entry): as the sequence (P41149 whole entry) above
`N=C(N)NCCCC(NC(=O)[C@@H](Cc1ccccc1)NC(=O)[C@H](Cc1cnc[nH]1)NC(=O)CCCCc1ccc2c(c1)OCO2)C(N)=O` (single isomer, unassigned): the result was inactive.
The same measure, in the same setting: under `CC(=O)N/C(=C\c1ccccc1)C(=O)N[C@@H](Cc1cnc[nH]1)C(=O)N[C@H](Cc1ccccc1)C(=O)NC(CCCNC(=N)N)C(N)=O` (single isomer, unassigned) stands “inactive”.

The target of the next test is Melanocortin receptor 4 (Mus musculus) (UniProt P56450). Nature of the test: Agonistic activity against mouse MC4R at […]. In kind it is functional.
Sequence of Melanocortin receptor 4 (Mus musculus) (P56450 whole entry): as the sequence (P56450 whole entry) above
For `N=C(N)NCCCC(NC(=O)[C@@H](Cc1ccccc1)NC(=O)[C@H](Cc1cnc[nH]1)NC(=O)/C=C/c1ccc([N+](=O)[O-])cc1)C(N)=O` (single isomer, unassigned), the result was inactive.
`N=C(N)NCCCC(NC(=O)[C@@H](Cc1ccccc1)NC(=O)[C@H](Cc1cnc[nH]1)NC(=O)CCCCc1ccc2c(c1)OCO2)C(N)=O` (single isomer, unassigned): the outcome was inactive.
Still for that read-out and setting: the result for `N=C(N)NCCCC(NC(=O)[C@@H](Cc1ccccc1)NC(=O)[C@H](Cc1cnc[nH]1)NC(=O)c1ccc2cc(O)ccc2c1)C(N)=O` (single isomer, unassigned) reads “inactive”; that for `N=C(N)NCCCC(NC(=O)[C@@H](Cc1ccccc1)NC(=O)[C@H](Cc1cnc[nH]1)NC(=O)CCc1cccnc1)C(N)=O` (single isomer, unassigned), “inactive”.
Same read-out and setting: under `N=C(N)NCCCC(NC(=O)[C@@H](Cc1ccccc1)NC(=O)[C@H](Cc1cnc[nH]1)NC(=O)CCc1ccc(O)cc1)C(N)=O` (single isomer, unassigned) stands “inactive”; under `N=C(N)NCCCC(NC(=O)[C@@H](Cc1ccccc1)NC(=O)[C@H](Cc1cnc[nH]1)NC(=O)CCc1cccc(O)c1)C(N)=O` (single isomer, unassigned), “inactive”.

A further test has as its target Melanocyte-stimulating hormone receptor (Mus musculus, UniProt Q01727). Kind of test: Agonistic activity against mouse MC1R. The class given is functional.
Consider `N=C(N)NCCCC(NC(=O)[C@@H](Cc1ccccc1)NC(=O)[C@H](Cc1cnc[nH]1)NC(=O)CCc1cccc2c1OCO2)C(N)=O` (single isomer, unassigned), for which the EC50 worked out at 7.28 µM.
